What was measured:
EGF-R1 = molecular target: T1, EGF-R1 (Homo sapiens, UniProt P00533); experiment: Kinase selectivity assay EGF-R1; format: biochemical
T1 construct: purified from human A431 cell membranes; purchased Sigma E3641; host or cells: human A431 cell membranes (endogenous protein)
Protocol: Assays to test compound inhibition of other kinases were preformed using methods that measure the amount of phosphorylation of a biotinylated peptide substrate. Biotinylated peptide substrates were selected from the literature as appropriate for the enzyme being evaluated. […] Assay conditions vary slightly for each protein kinase, for example, insulin receptor kinase requires 10 mM MnCl2 for activity and Calmodulin-dependent protein kinase requires calmodulin and 2 mM CaCl2. The reaction mixture was dispensed into the wells of a streptavidin coated Flashplate and 1 μL test compound in 100% DMSO was added to a 100 μL reaction volume resulting in a final concentration of 1% DMSO in the reaction. Enzyme was diluted in 50 mM Tris-HCl pH=8.0, 0.1% BSA and added to each well. The reaction was incubated for one hour at 30° C. in the presence of a test compound. After one hour the reaction mix was aspirated from the plate and the plate was washed with PBS containing 100 mM EDTA. The plate was read on a scintillation counter to determine ^33P-γ-ATP incorporated into the immobilized peptide substrate. Test compounds were assayed in duplicate at 8 concentrations (100 μM, 10 μM, 1 μM, 100 nM, 10 nM, 1 nM, 100 pM, 10 pM). A maximum and minimum signal for the assay was determined on each plate. […] Known inhibitor compounds appropriate for the kinase being assayed were also included on each plate. […]

CDK4 = CDK4 (Homo sapiens, UniProt P11802); experiment: Kinase selectivity assay CDK4; format: biochemical
Protocol: Assays to test compound inhibition of other kinases were preformed using methods that measure the amount of phosphorylation of a biotinylated peptide substrate. Biotinylated peptide substrates were selected from the literature as appropriate for the enzyme being evaluated. The general procedure used to assay for kinase activity is as follows: a kinase reaction mix was prepared in 50 mM Tris-HCl pH=8, 10 mM MgCl2, 0.1 mM Na3VO4, 1 mM DTT, 10 μM ATP, 0.25–1 μM biotinylated peptide substrate, 0.2–0.8 μCuries per well ^33P-γ-ATP (2000–3000 Ci/mmol). Assay conditions vary slightly for each protein kinase, for example, insulin receptor kinase requires 10 mM MnCl2 for activity and Calmodulin-dependent protein kinase requires calmodulin and 2 mM CaCl2. The reaction mixture was dispensed into the wells of a streptavidin coated Flashplate and 1 μL test compound in 100% DMSO was added to a 100 μL reaction volume resulting in a final concentration of 1% DMSO in the reaction. Enzyme was diluted in 50 mM Tris-HCl pH=8.0, 0.1% BSA and added to each well. The reaction was incubated for one hour at 30° C. in the presence of a test compound. […] The plate was read on a scintillation counter to determine ^33P-γ-ATP incorporated into the immobilized peptide substrate. […] A maximum and minimum signal for the assay was determined on each plate. […]

T1 sequence (P00533 25-1210): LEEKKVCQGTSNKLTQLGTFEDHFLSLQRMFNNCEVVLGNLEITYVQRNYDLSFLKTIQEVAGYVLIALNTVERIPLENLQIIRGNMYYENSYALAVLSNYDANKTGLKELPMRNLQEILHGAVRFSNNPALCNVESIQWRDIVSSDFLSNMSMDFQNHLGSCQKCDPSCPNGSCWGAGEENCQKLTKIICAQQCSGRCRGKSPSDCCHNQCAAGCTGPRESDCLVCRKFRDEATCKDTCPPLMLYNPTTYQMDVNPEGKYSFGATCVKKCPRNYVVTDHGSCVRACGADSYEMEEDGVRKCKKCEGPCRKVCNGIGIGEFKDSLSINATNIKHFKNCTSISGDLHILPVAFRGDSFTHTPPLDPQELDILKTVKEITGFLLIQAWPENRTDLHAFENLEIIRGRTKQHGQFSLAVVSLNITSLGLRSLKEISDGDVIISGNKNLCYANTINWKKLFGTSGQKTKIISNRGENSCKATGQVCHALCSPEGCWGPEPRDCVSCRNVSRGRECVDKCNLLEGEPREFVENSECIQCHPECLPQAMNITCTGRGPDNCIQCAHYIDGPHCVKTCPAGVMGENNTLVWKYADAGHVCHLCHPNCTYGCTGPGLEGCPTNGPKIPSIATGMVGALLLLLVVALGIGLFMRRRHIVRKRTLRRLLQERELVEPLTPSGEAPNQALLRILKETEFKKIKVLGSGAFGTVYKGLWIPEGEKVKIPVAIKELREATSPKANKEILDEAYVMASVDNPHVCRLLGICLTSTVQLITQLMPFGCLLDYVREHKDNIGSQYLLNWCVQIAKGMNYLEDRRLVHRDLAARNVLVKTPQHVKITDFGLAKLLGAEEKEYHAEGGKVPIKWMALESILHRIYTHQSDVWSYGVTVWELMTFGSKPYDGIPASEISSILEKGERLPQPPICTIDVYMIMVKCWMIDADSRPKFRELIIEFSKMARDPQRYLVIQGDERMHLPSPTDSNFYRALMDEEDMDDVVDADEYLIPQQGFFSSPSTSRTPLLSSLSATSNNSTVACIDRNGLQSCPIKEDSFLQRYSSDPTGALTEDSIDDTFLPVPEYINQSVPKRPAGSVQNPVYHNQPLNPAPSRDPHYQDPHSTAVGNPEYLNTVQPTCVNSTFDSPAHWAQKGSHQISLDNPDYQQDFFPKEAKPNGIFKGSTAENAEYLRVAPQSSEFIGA
Sequence of CDK4 (P11802 whole entry, species assumed): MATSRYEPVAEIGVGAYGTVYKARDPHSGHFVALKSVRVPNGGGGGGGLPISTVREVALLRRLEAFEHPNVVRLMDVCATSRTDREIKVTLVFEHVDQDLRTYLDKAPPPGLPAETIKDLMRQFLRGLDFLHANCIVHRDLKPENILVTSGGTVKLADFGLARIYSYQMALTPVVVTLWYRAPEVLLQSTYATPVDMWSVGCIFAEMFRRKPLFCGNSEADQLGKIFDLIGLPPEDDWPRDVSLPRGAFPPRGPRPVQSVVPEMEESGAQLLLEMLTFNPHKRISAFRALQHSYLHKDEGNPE
Sequence of CDK4 (P24385 whole entry partner, species assumed): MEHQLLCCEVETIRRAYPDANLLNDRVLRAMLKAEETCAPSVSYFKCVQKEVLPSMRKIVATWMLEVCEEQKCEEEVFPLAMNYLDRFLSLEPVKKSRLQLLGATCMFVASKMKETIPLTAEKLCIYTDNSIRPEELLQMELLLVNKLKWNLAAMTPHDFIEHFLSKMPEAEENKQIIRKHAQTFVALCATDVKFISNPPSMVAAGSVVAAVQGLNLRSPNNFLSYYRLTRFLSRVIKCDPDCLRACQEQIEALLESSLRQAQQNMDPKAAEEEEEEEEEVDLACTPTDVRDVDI

IC50 (EGF-R1): > 100 µM | IC50 (CDK4): 1.35 µM
SMILES: OCCCNc1cncc(-c2ncnc(Nc3cccc(Cl)c3)n2)c1 [Compound 1, 3-((5-(4-((3-chlorophenyl)amino)-1,3,5-triazin-2-yl)-3-pyridinyl)amino)-1-propanol]
